Experiments:
[1] = Cytotoxicity against human HDF cells assessed as reduction in cell viability measured after 36 to 48 hrs by MTT assay; assay type: toxicity, cell-based
[2] = Cytotoxicity against human HDF cells assessed as reduction in cell viability incubated for 6 hrs followed by irradiation for 30 mins with light at wavelength of 643 nm and measured after 36 to 48 hrs by MTT assay; assay type: toxicity, cell-based
[3] = Cytotoxicity against human HDF cells assessed as reduction in cell viability incubated for 6 hrs followed by irradiation for 30 mins with light at wavelength of 606 nm and measured after 36 to 48 hrs by MTT assay; assay type: toxicity, cell-based
[4] = Cytotoxicity against human MeWo cells assessed as reduction in cell viability measured after 36 to 48 hrs by MTT assay; assay type: toxicity, cell-based
[5] = Phototoxicity against human MeWo cells assessed as reduction in cell viability incubated for 6 hrs followed by irradiation for 30 mins with light at wavelength of 643 nm and measured after 36 to 48 hrs by MTT assay; assay type: functional, cell-based; details: light or radiation study
[6] = Phototoxicity against human MeWo cells assessed as reduction in cell viability incubated for 6 hrs followed by irradiation for 30 mins with light at wavelength of 606 nm and measured after 36 to 48 hrs by MTT assay; assay type: functional, cell-based; details: light or radiation study
[7] = Cytotoxicity against human A-375 cells assessed as reduction in cell viability measured after 36 to 48 hrs by MTT assay; assay type: toxicity, cell-based
[8] = Phototoxicity against human A-375 cells assessed as reduction in cell viability incubated for 6 hrs followed by irradiation for 30 mins with light at wavelength of 643 nm and measured after 36 to 48 hrs by MTT assay; assay type: functional, cell-based; details: A-375, light or radiation study
[9] = Phototoxicity against human A-375 cells assessed as reduction in cell viability incubated for 6 hrs followed by irradiation for 30 mins with light at wavelength of 606 nm and measured after 36 to 48 hrs by MTT assay; assay type: functional, cell-based; details: A-375, light or radiation study
[10] = Phototoxicity against human MeWo cells assessed as reduction in cell proliferation at 1 uM incubated for 6 hrs followed by irradiation for 30 mins with light at wavelength of 643 nm and measured after 36 to 48 hrs by MTT assay; assay type: functional; details: light or radiation study, time 2550-3270 min
[11] = Phototoxicity against human A-375 cells assessed as reduction in cell proliferation at 1 uM incubated for 6 hrs followed by irradiation for 30 mins with light at wavelength of 643 nm and measured after 36 to 48 hrs by MTT assay; assay type: functional; details: A-375, light or radiation study, time 2550-3270 min
[12] = Cytotoxicity against human HDF cells assessed as reduction in cell proliferation at 1 uM incubated for 6 hrs followed by irradiation for 30 mins with light at wavelength of 643 nm and measured after 36 to 48 hrs by MTT assay; assay type: toxicity, cell-based; details: time 2550-3270 min
[13] = Drug uptake in human MeWo cells at 1 uM measured at 4 degC after 6 hrs by fluorescence based analysis; assay type: ADME, cell-based
[14] = Drug uptake in human MeWo cells at 1 uM measured at 37 degC after 6 hrs by fluorescence based analysis; assay type: ADME, cell-based
[15] = Drug uptake in human HDF cells at 1 uM measured at 4 degC after 6 hrs by fluorescence based analysis; assay type: ADME, cell-based
[16] = Drug uptake in human HDF cells at 1 uM measured at 37 degC after 6 hrs by fluorescence based analysis; assay type: ADME, cell-based
[17] = Drug uptake in human HDF cells at 1 uM measured per 10^3 cells after 24 hrs by fluorescence based analysis; assay type: ADME, cell-based
[18] = Drug uptake in human MeWo cells at 1 uM measured after 6 hrs by fluorescence based analysis; assay type: ADME, cell-based
[19] = Drug uptake in human A-375 cells at 1 uM measured after 6 hrs by fluorescence based analysis; assay type: ADME, cell-based; details: a-375, 6 h
[20] = Drug uptake in human HDF cells at 1 uM measured after 6 hrs by fluorescence based analysis; assay type: ADME, cell-based
[21] = Drug uptake in cytoplasmic organelles in human MeWo cells at 5 uM incubated for 6 hrs by DIOC6(3) dye based fluorescence microscopy; assay type: ADME, cell-based
[22] = Drug uptake in nucleus in human MeWo cells at 5 uM incubated for 6 hrs by DIOC6(3) dye based fluorescence microscopy; assay type: ADME, cell-based
[23] = Drug uptake in cytoplasmic organelles in human HDF cells at 5 uM incubated for 6 hrs by DIOC6(3) dye based fluorescence microscopy; assay type: ADME, cell-based
[24] = Drug uptake in nucleus in human HDF cells at 5 uM incubated for 6 hrs by DIOC6(3) dye based fluorescence microscopy; assay type: ADME, cell-based
[25] = Phototoxicity against human A-375 cells assessed as cell proliferation rate at 1 uM incubated for 6 hrs followed by irradiation for 30 mins with light at wavelength of 606 nm and measured after 36 to 48 hrs by MTT assay; assay type: functional; details: A-375, light or radiation study, time 2550-3270 min, read-out: Activity
[26] = Phototoxicity against human A-375 cells assessed as cell proliferation rate at 1 uM incubated for 6 hrs followed by irradiation for 30 mins with light at wavelength of 643 nm and measured after 36 to 48 hrs by MTT assay; assay type: functional; details: A-375, light or radiation study, time 2550-3270 min, read-out: Activity
[27] = Phototoxicity against human MeWo cells assessed as cell proliferation rate at 1 uM incubated for 6 hrs followed by irradiation for 30 mins with light at wavelength of 606 nm and measured after 36 to 48 hrs by MTT assay; assay type: functional; details: light or radiation study, time 2550-3270 min, read-out: Activity
[28] = Phototoxicity against human MeWo cells assessed as cell proliferation rate at 1 uM incubated for 6 hrs followed by irradiation for 30 mins with light at wavelength of 643 nm and measured after 36 to 48 hrs by MTT assay; assay type: functional; details: light or radiation study, time 2550-3270 min, read-out: Activity
[29] = Cytotoxicity against human HDF cells assessed as cell proliferation rate at 1 uM incubated for 6 hrs followed by irradiation for 30 mins with light at wavelength of 606 nm and measured after 36 to 48 hrs by MTT assay; assay type: toxicity, cell-based; details: time 2550-3270 min, read-out: Activity
[30] = Cytotoxicity against human HDF cells assessed as cell proliferation rate at 1 uM incubated for 6 hrs followed by irradiation for 30 mins with light at wavelength of 643 nm and measured after 36 to 48 hrs by MTT assay; assay type: toxicity, cell-based; details: time 2550-3270 min, read-out: Activity
[31] = Phototoxicity against human MeWo cells assessed as reduction in cell proliferation at 1 uM incubated for 6 hrs followed by irradiation for 30 mins with light at wavelength of 606 nm and measured after 36 to 48 hrs by MTT assay; assay type: functional; details: light or radiation study, time 2550-3270 min
[32] = Phototoxicity against human A-375 cells assessed as reduction in cell proliferation at 1 uM incubated for 6 hrs followed by irradiation for 30 mins with light at wavelength of 606 nm and measured after 36 to 48 hrs by MTT assay; assay type: functional; details: A-375, light or radiation study, time 2550-3270 min
[33] = Cytotoxicity against human HDF cells assessed as reduction in cell proliferation at 1 uM incubated for 6 hrs followed by irradiation for 30 mins with light at wavelength of 606 nm and measured after 36 to 48 hrs by MTT assay; assay type: toxicity, cell-based; details: time 2550-3270 min
[34] = (§1) Selectivity index, ratio of IC50 for cytotoxicity against human HDF cells incubated for 6 hrs followed by irradiation for 30 mins with light at wavelength of 606 nm and measured after 36 to 48 hrs to IC50 for phototoxicity against human MeWo cells incubated for 6 hrs followed by irradiation for 30 mins with light at wavelength of 606 nm and measured after 36 to 48 hrs; assay type: toxicity, cell-based; details: HDF cells versus MeWo cells, read-out: Ratio IC50
[35] = as §1, with “A-375” for “MeWo”; assay type: toxicity, cell-based; details: HDF cells versus A-375 cells, read-out: Ratio IC50

Structure (SMILES) | Drug uptake [13] | Drug uptake [14] | Drug uptake [15] | Drug uptake [16] | Drug uptake [21] | Drug uptake [22] | Drug uptake [23] | Drug uptake [24] | IC50 [1] | IC50 [2] | IC50 [3] | IC50 [4] | IC50 [5] | IC50 [6] | IC50 [7] | IC50 [8] | IC50 [9] | further results
CCCCCCCCCCCC(=O)Nc1ccc(-c2c3nc(c(-c4ccc[n+](C)c4)c4ccc([nH]4)c(-c4ccc[n+](C)c4)c4nc(c(-c5ccc[n+](C)c5)c5ccc2[nH]5)C=C4)C=C3)cc1 |  |  |  |  |  |  |  |  | > 100 µM | 4.65 µM | 6.26 µM | > 100 µM | 2.36 µM | 4.27 µM | > 100 µM | 0.29 µM | 0.33 µM | inhibition at 1 µM [10]: 40%; inhibition at 1 µM [11]: > 90%; inhibition at 1 µM [12]: < 20%
CCCCCCCCCCCCCCCCCC(=O)Nc1ccc(-c2c3nc(c(-c4ccc[n+](C)c4)c4ccc([nH]4)c(-c4ccc[n+](C)c4)c4nc(c(-c5ccc[n+](C)c5)c5ccc2[nH]5)C=C4)C=C3)cc1.[Cl-].[Cl-].[Cl-] |  | Active |  | Active | Active | Not_active | Active | Not_active | > 100 µM | 0.32 µM | 0.67 µM | > 100 µM | 0.35 µM | 0.48 µM | > 100 µM | 0.09 µM | 0.37 µM | Drug uptake [17]: ~ 95 nM; Drug uptake [18]: Active; Drug uptake [19]: Active; Drug uptake [20]: Active
CC(=O)Nc1ccc(-c2c3nc(c(-c4ccc[n+](C)c4)c4ccc([nH]4)c(-c4ccc[n+](C)c4)c4nc(c(-c5ccc[n+](C)c5)c5ccc2[nH]5)C=C4)C=C3)cc1.[Cl-].[Cl-].[Cl-] | Active | Active | Active | Active |  |  |  |  | > 100 µM | > 100 µM | > 100 µM | > 100 µM | > 100 µM | > 100 µM | > 100 µM | > 100 µM | > 100 µM | 

More lines, main results first:

Drug uptake [13] | Drug uptake [14] | Drug uptake [15] | Drug uptake [16] | Drug uptake [21] | Drug uptake [22] | Drug uptake [23] | Drug uptake [24] | Structure (SMILES) | IC50 [1] | IC50 [2] | IC50 [3] | IC50 [4] | IC50 [5] | IC50 [6] | IC50 [7] | IC50 [8] | IC50 [9] | further results
Active | Active | Active | Active |  |  |  |  | CCCCCCCC(=O)Nc1ccc(-c2c3nc(c(-c4ccc[n+](C)c4)c4ccc([nH]4)c(-c4ccc[n+](C)c4)c4nc(c(-c5ccc[n+](C)c5)c5ccc2[nH]5)C=C4)C=C3)cc1.[Cl-].[Cl-].[Cl-] | > 100 µM | 25.7 µM | 32 µM | > 100 µM | 8.31 µM | 18.9 µM | > 100 µM | 2.5 µM | 3.22 µM | 
Active | Active | Active | Active | Active | Not_active | Active | Not_active | CCCCCCCCCC(=O)Nc1ccc(-c2c3nc(c(-c4ccc[n+](C)c4)c4ccc([nH]4)c(-c4ccc[n+](C)c4)c4nc(c(-c5ccc[n+](C)c5)c5ccc2[nH]5)C=C4)C=C3)cc1.[Cl-].[Cl-].[Cl-] | > 100 µM | 7.09 µM | 32.4 µM | > 100 µM | 7.7 µM | 9.77 µM | > 100 µM | 0.91 µM | 3.94 µM | growth at 1 µM [25]: > 80%; growth at 1 µM [26]: ~30%
 | Active |  | Active |  |  |  |  | CCCCCCCCCCCCCCCC(=O)Nc1ccc(-c2c3nc(c(-c4ccc[n+](C)c4)c4ccc([nH]4)c(-c4ccc[n+](C)c4)c4nc(c(-c5ccc[n+](C)c5)c5ccc2[nH]5)C=C4)C=C3)cc1.[Cl-].[Cl-].[Cl-] | > 100 µM | 0.42 µM | 1.48 µM | > 100 µM | 0.56 µM | 0.79 µM | > 100 µM | 0.1 µM | 0.38 µM | Drug uptake [17]: ~ 26 nM
 | Active |  | Active | Active | Not_active | Active | Not_active | CCCCCCCCCCCCCC(=O)Nc1ccc(-c2c3nc(c(-c4ccc[n+](C)c4)c4ccc([nH]4)c(-c4ccc[n+](C)c4)c4nc(c(-c5ccc[n+](C)c5)c5ccc2[nH]5)C=C4)C=C3)cc1.[Cl-].[Cl-].[Cl-] | > 100 µM | 0.78 µM | 4.6 µM | > 100 µM | 0.66 µM | 1.44 µM | > 100 µM | 0.09 µM | 0.31 µM | growth at 1 µM [27]: 60%; growth at 1 µM [28]: 40%; viability at 1 µM [29]: > 80%; viability at 1 µM [30]: ~30%; inhibition at 1 µM [31]: 50%; inhibition at 1 µM [32]: 90%; inhibition at 1 µM [33]: 10%; selectivity ratio [34]: 3.2; selectivity ratio [35]: 14.8

Reference: ChEMBL document CHEMBL6153031, “Impact of the hydrophilic-lipophilic balance of free-base and Zn(II) tricationic pyridiniumporphyrins and irradiation wavelength in PDT against the melanoma cell lines” (Eur J Med Chem, 2025)
